Measurements taken from patent US8445492B2, “Method for inhibiting growth of cancer cells and cell telomere and diseases of cell proliferation by using heteroannelated anthraquinone derivative compounds” (National Defense Medical Center, priority 2008, dated 2013).
Read-outs that look alike come from different tables or passages of the source.

Legend:
BT-549 = test: NCI DTP in-vitro dose response, Breast Cancer; assay type: cell-based
MDA-MB-435 = test: NCI DTP in-vitro dose response, Breast Cancer; assay type: cell-based
MDA-MB-231/ATCC = test: NCI DTP in-vitro dose response, Breast Cancer; assay type: cell-based; settings: MDA-MB-231/ATCC
T-47D = test: NCI DTP in-vitro dose response, Breast Cancer; assay type: cell-based; settings: T-47D
HS 578T = test: NCI DTP in-vitro dose response, Breast Cancer; assay type: cell-based; settings: HS 578T
MCF7 = test: NCI DTP in-vitro dose response, Breast Cancer; assay type: cell-based
NCI/ADR-RES = test: NCI DTP in-vitro dose response, Breast Cancer; assay type: cell-based; settings: NCI/ADR-RES
[1] = read-out: LC50 (the source's name)

O=C1c2ccccc2C(=O)c2c1ccc1nccnc21 [TABLE 5-9]
TGI (BT-549; BT-549): 9.35E−5 | Percent Growth (BT-549; BT-549, Log10 Concentration −4.0): −2% | Percent Growth (BT-549; BT-549, Log10 Concentration −5.0): 55% | Percent Growth (BT-549; BT-549, Log10 Concentration −6.0): 83% | Percent Growth (BT-549; BT-549, Log10 Concentration −7.0): 85% | Percent Growth (BT-549; BT-549, Log10 Concentration −8.0): 95% | GI50 (BT-549; BT-549, read-out: GI50): 12.2 µM | CC50 (BT-549; BT-549, read-out: LC50 (the source's name)): > 100 µM | TGI (MDA-MB-435; MDA-MB-435): 2.37E−5 | Percent Growth (MDA-MB-435; MDA-MB-435, Log10 Concentration −4.0): −95% | Percent Growth (MDA-MB-435; MDA-MB-435, Log10 Concentration −5.0): 57% | Percent Growth (MDA-MB-435; MDA-MB-435, Log10 Concentration −6.0): 101% | Percent Growth (MDA-MB-435; MDA-MB-435, Log10 Concentration −7.0): 97% | Percent Growth (MDA-MB-435; MDA-MB-435, Log10 Concentration −8.0): 101% | GI50 (MDA-MB-435; MDA-MB-435, read-out: GI50): 11.1 µM | CC50 (MDA-MB-435; MDA-MB-435, read-out: LC50 (the source's name)): 50.4 µM | TGI (MDA-MB-231/ATCC): >1.00E−4 | Percent Growth (MDA-MB-231/ATCC; Log10 Concentration −4.0): 14% | Percent Growth (MDA-MB-231/ATCC; Log10 Concentration −5.0): 64% | Percent Growth (MDA-MB-231/ATCC; Log10 Concentration −6.0): 85% | Percent Growth (MDA-MB-231/ATCC; Log10 Concentration −7.0): 88% | Percent Growth (MDA-MB-231/ATCC; Log10 Concentration −8.0): 100% | GI50 (MDA-MB-231/ATCC; read-out: GI50): 19.1 µM | CC50 (MDA-MB-231/ATCC; [1]): > 100 µM | TGI (T-47D): 7.51E−5 | Percent Growth (T-47D; Log10 Concentration −4.0): −8% | Percent Growth (T-47D; Log10 Concentration −5.0): 56% | Percent Growth (T-47D; Log10 Concentration −6.0): 71% | Percent Growth (T-47D; Log10 Concentration −7.0): 80% | Percent Growth (T-47D; Log10 Concentration −8.0): 85% | GI50 (T-47D; read-out: GI50): 12.6 µM | CC50 (T-47D; [1]): > 100 µM | TGI (HS 578T): 9.14E−5 | Percent Growth (HS 578T; Log10 Concentration −4.0): −2% | Percent Growth (HS 578T; Log10 Concentration −5.0): 59% | Percent Growth (HS 578T; Log10 Concentration −6.0): 81% | Percent Growth (HS 578T; Log10 Concentration −7.0): 90% | Percent Growth (HS 578T; Log10 Concentration −8.0): 88% | GI50 (HS 578T; read-out: GI50): 14.1 µM | CC50 (HS 578T; [1]): > 100 µM | TGI (MCF7; MCF7): 2.98E−5 | Percent Growth (MCF7; MCF7, Log10 Concentration −4.0): −29% | Percent Growth (MCF7; MCF7, Log10 Concentration −5.0): 27% | Percent Growth (MCF7; MCF7, Log10 Concentration −6.0): 45% | Percent Growth (MCF7; MCF7, Log10 Concentration −7.0): 80% | Percent Growth (MCF7; MCF7, Log10 Concentration −8.0): 81% | GI50 (MCF7; MCF7, read-out: GI50): 0.722 µM | CC50 (MCF7; MCF7, read-out: LC50 (the source's name)): > 100 µM | TGI (NCI/ADR-RES): >1.00E−4 | Percent Growth (NCI/ADR-RES; Log10 Concentration −4.0): 8% | Percent Growth (NCI/ADR-RES; Log10 Concentration −5.0): 38% | Percent Growth (NCI/ADR-RES; Log10 Concentration −6.0): 87% | Percent Growth (NCI/ADR-RES; Log10 Concentration −7.0): 92% | Percent Growth (NCI/ADR-RES; Log10 Concentration −8.0): 95% | GI50 (NCI/ADR-RES; read-out: GI50): 5.68 µM | CC50 (NCI/ADR-RES; [1]): > 100 µM

O=C1c2ccccc2C(=O)c2c1ccc1nccnc21 [TABLE 5-8]
GI50 (DU-145; DU-145): 11.4 µM | TGI (DU-145; DU-145): 3.43E−5 | Percent Growth (DU-145; DU-145, Log10 Concentration −4.0): −49% | Percent Growth (DU-145; DU-145, Log10 Concentration −5.0): 56% | Percent Growth (DU-145; DU-145, Log10 Concentration −6.0): 96% | Percent Growth (DU-145; DU-145, Log10 Concentration −7.0): 95% | Percent Growth (DU-145; DU-145, Log10 Concentration −8.0): 102% | CC50 (DU-145; read-out: LC50, DU-145): > 100 µM | TGI (PC-3; PC-3): >1.00E−4 | Percent Growth (PC-3; PC-3, Log10 Concentration −4.0): 50% | Percent Growth (PC-3; PC-3, Log10 Concentration −5.0): 50% | Percent Growth (PC-3; PC-3, Log10 Concentration −6.0): 69% | Percent Growth (PC-3; PC-3, Log10 Concentration −7.0): 92% | Percent Growth (PC-3; PC-3, Log10 Concentration −8.0): 101% | CC50 (PC-3; read-out: LC50, PC-3): > 100 µM
